Measurements taken from patent US20100203650A1, “BIOMOLECULE BINDING LIGANDS” (CAMBRIDGE ENTERPRISE LIMITED, priority 2007, published 2010).
“Also recorded” adds a separate entry of the source.

Target: T1, Factor VIII (Homo sapiens, UniProt P00451)
T1 construct: large-scale purification of a full-length recombinant Factor VIII
Assay: Factor VIII microplate assay
Type: binding
Protocol: On the basis of the results obtained from the initial collection, additional ligands were prepared and screened in relation to Factor VIII binding and elution behaviour. These studies have been performed either using a simple microtitre plate assay (resin volume 40 μL/well) to determine approximate Factor VIII binding affinity followed by more detailed studies using gravity-flow packed resin columns (0.5 mL resin volume). These packed column studies are more accurate and allow simple experiments to be conducted to determine absolute resin affinity by gradual saturation of the column (200 μL, […]) and following the protein concentration in the eluate after serial addition of each factor VIII aliquot applied to the column. In this way, the binding can be established and elution behaviour of each ligand in parallel.

T1 sequence (P00451 20-2351): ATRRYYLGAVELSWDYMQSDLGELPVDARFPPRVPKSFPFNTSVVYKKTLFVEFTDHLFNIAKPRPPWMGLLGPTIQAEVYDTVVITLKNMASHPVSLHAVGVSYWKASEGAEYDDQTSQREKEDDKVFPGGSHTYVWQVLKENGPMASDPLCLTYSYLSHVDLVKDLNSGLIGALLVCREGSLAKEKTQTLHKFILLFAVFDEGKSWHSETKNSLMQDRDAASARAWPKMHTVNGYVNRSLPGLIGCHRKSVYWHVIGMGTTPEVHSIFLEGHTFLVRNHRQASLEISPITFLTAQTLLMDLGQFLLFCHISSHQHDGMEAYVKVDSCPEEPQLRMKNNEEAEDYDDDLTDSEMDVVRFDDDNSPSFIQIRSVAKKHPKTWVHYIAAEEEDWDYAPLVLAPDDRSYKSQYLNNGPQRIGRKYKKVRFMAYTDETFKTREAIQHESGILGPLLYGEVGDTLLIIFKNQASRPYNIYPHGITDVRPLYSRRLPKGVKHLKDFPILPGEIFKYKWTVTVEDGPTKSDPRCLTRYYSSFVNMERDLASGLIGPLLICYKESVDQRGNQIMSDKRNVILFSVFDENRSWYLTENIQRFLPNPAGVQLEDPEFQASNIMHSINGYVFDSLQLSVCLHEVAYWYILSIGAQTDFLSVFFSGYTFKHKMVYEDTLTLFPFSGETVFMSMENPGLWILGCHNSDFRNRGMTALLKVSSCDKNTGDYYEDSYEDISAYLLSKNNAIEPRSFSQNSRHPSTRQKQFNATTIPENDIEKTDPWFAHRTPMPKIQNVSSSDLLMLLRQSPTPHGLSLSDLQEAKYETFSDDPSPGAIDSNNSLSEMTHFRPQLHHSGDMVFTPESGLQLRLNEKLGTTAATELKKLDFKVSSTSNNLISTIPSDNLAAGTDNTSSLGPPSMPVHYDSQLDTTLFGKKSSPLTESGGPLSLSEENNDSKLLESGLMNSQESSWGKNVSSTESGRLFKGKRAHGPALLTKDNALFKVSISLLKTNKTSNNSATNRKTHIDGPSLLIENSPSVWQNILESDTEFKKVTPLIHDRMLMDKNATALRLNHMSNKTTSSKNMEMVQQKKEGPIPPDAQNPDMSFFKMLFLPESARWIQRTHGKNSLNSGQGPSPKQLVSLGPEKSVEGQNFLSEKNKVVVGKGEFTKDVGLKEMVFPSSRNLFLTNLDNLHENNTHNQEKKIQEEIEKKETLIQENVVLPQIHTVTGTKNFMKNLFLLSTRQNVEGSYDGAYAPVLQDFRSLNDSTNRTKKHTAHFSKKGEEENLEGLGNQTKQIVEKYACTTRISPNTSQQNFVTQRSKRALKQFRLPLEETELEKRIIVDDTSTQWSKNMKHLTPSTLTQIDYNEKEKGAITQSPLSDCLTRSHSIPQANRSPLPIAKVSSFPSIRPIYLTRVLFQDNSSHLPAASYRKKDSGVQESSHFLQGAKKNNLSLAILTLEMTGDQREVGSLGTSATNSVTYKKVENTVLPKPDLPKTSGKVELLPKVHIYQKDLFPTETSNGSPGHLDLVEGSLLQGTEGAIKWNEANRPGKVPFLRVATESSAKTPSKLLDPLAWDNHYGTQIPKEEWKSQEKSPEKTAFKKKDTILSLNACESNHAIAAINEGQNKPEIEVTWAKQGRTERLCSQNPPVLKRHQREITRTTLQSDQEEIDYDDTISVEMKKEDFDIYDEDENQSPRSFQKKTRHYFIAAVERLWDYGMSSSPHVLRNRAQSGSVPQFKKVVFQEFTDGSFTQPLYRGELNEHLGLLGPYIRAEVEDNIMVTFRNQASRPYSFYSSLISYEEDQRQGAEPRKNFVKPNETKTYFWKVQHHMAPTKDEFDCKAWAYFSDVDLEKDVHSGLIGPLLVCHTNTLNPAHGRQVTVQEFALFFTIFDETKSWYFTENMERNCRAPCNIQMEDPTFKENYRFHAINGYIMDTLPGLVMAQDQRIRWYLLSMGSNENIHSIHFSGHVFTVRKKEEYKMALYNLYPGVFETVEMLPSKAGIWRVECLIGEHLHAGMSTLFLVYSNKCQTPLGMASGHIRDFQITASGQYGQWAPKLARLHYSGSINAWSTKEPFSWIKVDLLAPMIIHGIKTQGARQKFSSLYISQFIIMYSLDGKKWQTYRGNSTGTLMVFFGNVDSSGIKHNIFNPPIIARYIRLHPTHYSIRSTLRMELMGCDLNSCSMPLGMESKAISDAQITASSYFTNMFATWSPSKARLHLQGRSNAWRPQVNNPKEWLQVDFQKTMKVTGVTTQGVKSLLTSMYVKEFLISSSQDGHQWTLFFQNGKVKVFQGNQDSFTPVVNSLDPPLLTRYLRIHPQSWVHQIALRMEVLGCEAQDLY

Factor VIII Bound (initial collection U1-U4 and comparison ligand): 106.3 µg/mL
SMILES: COC(=O)c1cccc(Nc2nc(C)nc(Nc3cccc4c(S(=O)(=O)OC)cccc34)n2)c1 [34/43]
Factor VIII binding (in words): strongest Factor VIII binding and elution characteristics; also recorded: one of the highest Factor VIII binding potential
